Assay results taken from patent US20250099557A1, “ANTIBIOTIC PHARMACEUTICAL COMPOSITION CAPABLE OF SUBCUTANEOUS ADMINISTRATION” (SHANGHAI BAO PHARMACEUTICALS CO., LTD., priority 2021, published 2025).

Tests used:
intestinal flora = assay: Effects of administration routes on the diversity of intestinal flora in mice (16S rDNA sequencing, OTU); type: in vivo; settings: C57BL/6 mice, feces
From the text: 12 SPF grade C57BL/6 mice were used for each antibiotic mode, and divided into two groups, each having 6 mice. The two groups include an oral administration group, and a subcutaneous administration group combined with recombinant human HAase. A blank control group including 6 mice was also set. The mice in the oral administration group were given the model antibiotic solution by oral gavage for five consecutive days. The mice in the subcutaneous administration group combined with recombinant human HAase were given the same dose of model antibiotic as that in the oral administration group by subcutaneous administration for five consecutive days. The feces of mice in each group were collected on the 1 st, 2nd, 3rd, 4th, 5th, 6th, 8th, 10th and 14th days after five consecutive days of administration, and stored at −80° C., for detecting the microbial diversity later. The fecal samples of each group were amplified and sequenced by 16S rDNA sequencing. After DNA extraction, PCR amplification and gene sequencing, the changes of intestinal bacterial diversity in each group of mice were analyzed. The relative species diversity of the test group was calculated, with the OUT value of the blank control group in each day as a reference, as shown in Table 33.

[1] = Compatibility study of HAase and antibiotic in solution: appearance of the solution; type: physicochemical; settings: 8 solutions of antibiotic (two concentrations) with HAase 150-6000 units/ml in physiological saline
Experimental: (§1) The compatibility of HAase and an antibiotic was studied by preparing a solution comprising the two substances. A dry Meropenem power for injection was dissolved in physiological saline to give a concentration of 5 mg/ml and 50 mg/ml, and then HAase was added to give a final concentration of 150, 500, 2000, and 6000 units/ml respectively. After preparation, the solution was left to stand at room temperature for 15 min. The appearance of the solution was observed, and the concentration of HAase was determined.
as §1, with “dry Ceftriaxone sodium” for “dry Meropenem”, “of 50” for “of 5”, “and 250” for “and 50”
as §1, with “dry Azithromycin” for “dry Meropenem”, “of 10” for “of 5”, “and 100” for “and 50”
as §1, with “dry Cefradine powder” for “dry Meropenem power”, “of 50” for “of 5”, “and 250” for “and 50”
as §1, with “dry Teicoplanin powder” for “dry Meropenem power”, “of 10” for “of 5”, “and 70” for “and 50”
as §1, with “dry Ceftazidime powder” for “dry Meropenem power”, “of 20” for “of 5”, “and 200” for “and 50”
as §1, with “dry Ertapenem” for “dry Meropenem”, “of 30” for “of 5”, “and 300” for “and 50”
The compatibility of HAase and an antibiotic was studied by preparing a solution comprising the two substances. A dry Polymyxin B powder for injection was dissolved in physiological saline to give a concentration of 50,000 units/ml and 250,000 units/ml, and then HAase was added to give a final concentration of 150, 500, 2000, and 6000 units/ml respectively.

[2] = in combination with recombinant human HAase for subcutaneous administration, five consecutive days, D1 after administration
[3] = in combination with recombinant human HAase for subcutaneous administration, five consecutive days, D2
[4] = in combination with recombinant human HAase for subcutaneous administration, five consecutive days, D3
[5] = in combination with recombinant human HAase for subcutaneous administration, five consecutive days, D4
[6] = in combination with recombinant human HAase for subcutaneous administration, five consecutive days, D5
[7] = in combination with recombinant human HAase for subcutaneous administration, five consecutive days, D6
[8] = in combination with recombinant human HAase for subcutaneous administration, five consecutive days, D8
[9] = in combination with recombinant human HAase for subcutaneous administration, five consecutive days, D10
[10] = in combination with recombinant human HAase for subcutaneous administration, five consecutive days, D14
[11] = oral administration for five consecutive days, D1 after administration
[12] = oral administration for five consecutive days, D2
[13] = oral administration for five consecutive days, D3
[14] = oral administration for five consecutive days, D4
[15] = oral administration for five consecutive days, D5
[16] = oral administration for five consecutive days, D6
[17] = oral administration for five consecutive days, D8
[18] = oral administration for five consecutive days, D10
[19] = oral administration for five consecutive days, D14

| Relative abundance of OUT (operational taxonomic units) (intestinal flora; [2]) [%] | Relative abundance of OUT (operational taxonomic units) (intestinal flora; [3]) [%] | Relative abundance of OUT (operational taxonomic units) (intestinal flora; [4]) [%] | Relative abundance of OUT (operational taxonomic units) (intestinal flora; [5]) [%] | Relative abundance of OUT (operational taxonomic units) (intestinal flora; [6]) [%] | Relative abundance of OUT (operational taxonomic units) (intestinal flora; [7]) [%] | Relative abundance of OUT (operational taxonomic units) (intestinal flora; [8]) [%] | Relative abundance of OUT (operational taxonomic units) (intestinal flora; [9]) [%] | Relative abundance of OUT (operational taxonomic units) (intestinal flora; [10]) [%] | Relative abundance of OUT (operational taxonomic units) (intestinal flora; [11]) [%] | Relative abundance of OUT (operational taxonomic units) (intestinal flora; [12]) [%] | Relative abundance of OUT (operational taxonomic units) (intestinal flora; [13]) [%] | Relative abundance of OUT (operational taxonomic units) (intestinal flora; [14]) [%] | Relative abundance of OUT (operational taxonomic units) (intestinal flora; [15]) [%] | Relative abundance of OUT (operational taxonomic units) (intestinal flora; [16]) [%] | Relative abundance of OUT (operational taxonomic units) (intestinal flora; [17]) [%] | Relative abundance of OUT (operational taxonomic units) (intestinal flora; [18]) [%] | Relative abundance of OUT (operational taxonomic units) (intestinal flora; [19]) [%] | appearance of the solution [1] | Compound |
| --- | --- | --- | --- | --- | --- | --- | --- | --- | --- | --- | --- | --- | --- | --- | --- | --- | --- | --- | --- |
| 35.5 | 37.2 | 36.3 | 36.2 | 36.2 | 37.1 | 42.1 | 42.9 | 48.7 | 24.4 | 23.6 | 20.4 | 22.6 | 20.7 | 24.3 | 25.8 | 28.6 | 31.9 | clear and transparent | CC1=C(C(=O)O)N2C(=O)[C@@H](NC(=O)[C@H](N)C3=CCC=CC3)[C@H]2SC1 [Cefradine] |
| 35.5 | 34.0 | 34.3 | 33.7 | 34.3 | 35.1 | 41.6 | 42.3 | 51.3 | 22.8 | 20.9 | 20.4 | 21.1 | 19.2 | 22.3 | 26.8 | 29.6 | 32.5 | clear and transparent | CC(C)(O/N=C(\C(=O)N[C@@H]1C(=O)N2C(C(=O)[O-])=C(C[n+]3ccccc3)CS[C@H]12)c1csc(N)n1)C(=O)O [Ceftazidime] |
| 31.5 | 28.8 | 28.9 | 33.2 | 29.1 | 33.2 | 37.9 | 39.3 | 47.1 | 16.8 | 14.7 | 10.4 | 14.1 | 15.5 | 18.3 | 15.8 | 23.0 | 25.7 | clear and transparent | CO/N=C(\C(=O)N[C@@H]1C(=O)N2C(C(=O)O)=C(CSc3nc(=O)c(=O)[nH]n3C)CS[C@H]12)c1csc(N)n1 [Ceftriaxone] |
| 30.5 | 30.9 | 28.9 | 31.2 | 28.2 | 33.2 | 36.8 | 36.7 | 39.3 | 16.2 | 13.1 | 10.4 | 14.6 | 16.0 | 15.3 | 15.8 | 20.9 | 24.1 | clear and transparent | C[C@@H](O)[C@H]1C(=O)N2C(C(=O)O)=C(S[C@@H]3CN[C@H](C(=O)Nc4cccc(C(=O)O)c4)C3)[C@H](C)[C@H]12 [Ertapenem] |
| 51.8 | 56.0 | 53.7 | 56.3 | 51.2 | 55.4 | 63.7 | 64.8 | 71.7 | 44.7 | 41.9 | 39.8 | 41.2 | 39.4 | 41.1 | 46.3 | 45.9 | 49.7 | clear and transparent | Teicoplanin |
